Data taken from patent US20130158080A1, “METHODS FOR TREATING HYPERTENSION IN BLACK PATIENTS” (Takeda Pharmaceuticals U.S.A., Inc., priority 2011, published 2013).

System: subjects with moderate to severe hypertension
Assay: Same study: safety and tolerability (adverse events, laboratory tests, discontinuations)
Design: species or system human
Conditions: in vivo
Text: Randomization was stratified by subject's race: Black and non-Black. Before initiation of treatment, all subjects participated in a 2-week, single-blind, placebo Run-in Period (Days −14 to −1). […] Subjects taking previous antihypertensive agents were required to participate in a 3 week Washout Period (Days −21 to −1).
Safety variables included adverse events, vital signs (including orthostatic vital signs), 12-lead electrocardiogram (ECG) findings, and clinical laboratory test results.
Treatment-emergent adverse events (TEAEs) were tabulated, and vital signs and 12-lead ECG findings were summarized with descriptive statistics. All safety data were presented in the listings.

“azilsartan medoxomil potassium plus chlorthalidone [TAK-491CLD]” was tested, and the “Mean increases in serum creatinine, blood urea nitrogen, and serum uric acid” value was “more common”.
